Results as given in patent publication US6428997B1, “Aminopeptidase derived from Bacillus licheniformis and process for preparation of natural type proteins” (LG Chemical Ltd., priority 1997, dated 2002).

Tests used:
[1] = tested on: aminopeptidase; assay: Effect of chemical materials affecting enzyme activity of aminopeptidase; type: biochemical, Bacillus licheniformis
Procedure: (§1) In order to examine chemical materials affecting enzyme activity of aminopeptidase, enzyme activities of aminopeptidase treated for 2 hours with dithiotreitol, iodoacetic acid, ortho-phenanthroline and EDTA as 1, 5 and 20 mMJ respectively were measured.

[2] = target: T1, aminopeptidase of Bacillus licheniformis ATCC 12759 (N-terminal sequence SEQ ID NO: 3) (Bacillus licheniformis, UniProt Q65DH7); assay: Effect of chemical materials on aminopeptidase activity (2 h treatment, leucine-p-nitroanilide substrate); type: biochemical; details: treated 2 hours, 0 mM = 100, read-out: relative activity
T1 sequence (Q65DH7 43-449 limits assumed): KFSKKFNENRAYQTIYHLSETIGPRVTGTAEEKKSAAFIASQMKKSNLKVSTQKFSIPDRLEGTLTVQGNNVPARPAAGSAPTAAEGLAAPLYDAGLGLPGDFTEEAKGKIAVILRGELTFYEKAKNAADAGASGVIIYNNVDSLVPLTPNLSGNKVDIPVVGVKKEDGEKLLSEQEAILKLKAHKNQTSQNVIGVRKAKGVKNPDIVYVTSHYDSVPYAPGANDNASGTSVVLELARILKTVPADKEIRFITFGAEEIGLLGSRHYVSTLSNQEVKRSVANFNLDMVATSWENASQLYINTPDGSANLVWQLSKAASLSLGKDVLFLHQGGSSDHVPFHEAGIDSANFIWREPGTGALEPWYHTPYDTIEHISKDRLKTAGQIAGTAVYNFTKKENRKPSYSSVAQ
Procedure: Aminopeptidase activities of this invention were measured by the method of Pfleiderer (Pfleiderer, Meth. Enzymol., 19, 514-521, 1970). Precisely, 1 U of enzyme activity defines the enzyme quantity changing 1 absorbance at 405 nm which is measured by the process adding aminopeptidase in 1 ml solution of […] Tris-Cl (pH 8.0) and 2 mM leucine-p-nitroanilide (Sigma, USA), incubating at 37° C. for 1 min, then adding 100 μl of 70% acetic acid to stop the reaction. At that time leucine-p-nitroanilide was dissolved in dimethylsulfoxide (DMSO) to make 100 mM solution.
as §1

[3] = Moore, Endocrinology 1988; cited from earlier work
[4] = aminopeptidase treated for 2 hours with 1 mM chemical
[5] = aminopeptidase treated for 2 hours with 5 mM chemical
[6] = aminopeptidase treated for 2 hours with 20 mM chemical

Compound	effect on aminopeptidase activity (in words) [1]	relative activity (%) [1, 4] [%]	relative activity (%) [1, 5] [%]	relative activity (%) [1, 6] [%]	activity at 1000 µM ([2]; pH 8, 1 mM chemical) [%]	activity at 5000 µM ([2]; pH 8, 5 mM chemical) [%]	activity at 20000 µM ([2]; pH 8, 20 mM chemical) [%]	biological activity compared with natural type HGH [3]
c1cnc2c(c1)ccc1cccnc12 [ortho-penanthroline, ortho-phenanthroline]	inhibited	91.9	86.8	4.7	91.9	86.8	4.7	–
O[C@H](CS)[C@H](O)CS (racemic) [dithiotreitol, dithiothreitol]	inhibited	0.8	0	0	–	–	–	–
O=C(O)CN(CCN(CC(=O)O)CC(=O)O)CC(=O)O [EDTA, ethylenediaminetetraacetic acid]	inhibited partially	93.8	83.4	66.3	–	–	–	–
methionyl HGH: recombinant human growth hormone of 192 amino acids with Met-Phe-Pro-Thr sequence at the N-terminus	–	–	–	–	–	–	–	the same activity with that of natural type HGH
O=C(O)CI [iodoacetic acid]	inhibited	98.1	104.2	0	–	–	–	–
